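Step 1: Grow cells in 96-well plates. Step 2: Expose to compound for 48 hours at 5 concentrations. Step 3: Interpolate endpoints linearly; if unreached, use highest concentration. GI50 marks 50% less growth.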 Active and inactive are the calls of the source. No stated cut-off is given here; in the data, active = GI50 up to about 1.1 µM and inactive = higher.
Tests used:
Assay in all cases: growth of human tumour cells (NCI), 48 h
MDA-MB-231 = test system: MDA-MB-231
UACC-62 = test system: UACC-62
SNB-19 = test system: SNB-19
SF-295 = test system: SF-295
RXF 393 = test system: RXF 393
SF-539 = test system: SF-539
M14 = test system: M14
UACC-257 = test system: UACC-257
OVCAR-5 = test system: OVCAR-5
SNB-75 = test system: SNB-75
CCRF-CEM = test system: CCRF-CEM
MDA-N = test system: MDA-N
HT-29 = test system: HT-29
SF-268 = test system: SF-268
NCI-H522 = test system: NCI-H522
T47D = test system: T47D
KM12 = test system: KM12
IGROV-1 = test system: IGROV-1
SK-MEL-5 = test system: SK-MEL-5
TK-10 = test system: TK-10

Measured: GI50

Nn1c(S)nnc1CCCCCCCCc1nnc(S)n1N
inactive: MDA-MB-231 > 100 µM | UACC-62 > 100 µM | SNB-19 > 100 µM | SF-295 > 100 µM | RXF 393 > 100 µM | SF-539 > 100 µM | M14 > 100 µM | UACC-257 > 100 µM | OVCAR-5 > 100 µM | SNB-75 > 100 µM | CCRF-CEM 90.8 µM | MDA-N > 100 µM | HT-29 > 100 µM | SF-268 > 100 µM | NCI-H522 > 100 µM | T47D > 100 µM | KM12 > 100 µM | IGROV-1 > 100 µM

Cc1cc(C)c(S(=O)(=O)N2CCCN(S(=O)(=O)c3c(C)cc(C)cc3C)OCCCO2)c(C)c1
inactive: MDA-MB-231 > 100 µM | UACC-62 > 100 µM | SNB-19 > 100 µM | SF-295 > 100 µM | RXF 393 > 100 µM | M14 > 100 µM | UACC-257 45.9 µM | OVCAR-5 > 100 µM | SK-MEL-5 > 100 µM | SNB-75 57.1 µM | CCRF-CEM > 100 µM | TK-10 > 100 µM | MDA-N > 100 µM | HT-29 > 100 µM | SF-268 > 100 µM | NCI-H522 > 100 µM | T47D 63.5 µM | KM12 > 100 µM | IGROV-1 > 100 µM

COc1ccc(C[N+]23C(CC[C@H]2c2ccccc2)CC[C@H]3c2ccccc2)cc1 (stereo not given in full)
inactive: MDA-MB-231 28.2 µM | SNB-19 27.2 µM | SF-295 26.1 µM | RXF 393 13.8 µM | M14 12.9 µM | UACC-257 5.22 µM | OVCAR-5 32.3 µM | SK-MEL-5 4.43 µM | SNB-75 18.3 µM | CCRF-CEM 27.5 µM | TK-10 44.9 µM | MDA-N 13.2 µM | HT-29 12.2 µM | SF-268 30.3 µM | NCI-H522 8.73 µM | T47D 4.56 µM | KM12 10.4 µM | IGROV-1 10.9 µM

CCC1=NC(N/N=C/c2ccccc2O)=N/C1=C\c1ccccc1O
inactive: MDA-MB-231 36.3 µM | UACC-62 9.79 µM | SNB-19 14.6 µM | SF-295 7.69 µM | RXF 393 18.3 µM | M14 10.1 µM | UACC-257 14.8 µM | OVCAR-5 26.7 µM | SK-MEL-5 19.5 µM | SNB-75 17.5 µM | CCRF-CEM 3.94 µM | TK-10 11.2 µM | MDA-N 17 µM | HT-29 4.81 µM | SF-268 4.98 µM | NCI-H522 6.43 µM | T47D 12.1 µM | KM12 17 µM | IGROV-1 11.5 µM

CCOP(=O)(OCC)/C(C#N)=C/c1ccnc2ccccc12
inactive: MDA-MB-231 24.9 µM | UACC-62 26.1 µM | SNB-19 21.4 µM | SF-295 24.2 µM | RXF 393 23.2 µM | SF-539 26.5 µM | M14 20.1 µM | UACC-257 51.3 µM | OVCAR-5 22.5 µM | SK-MEL-5 23.3 µM | SNB-75 25.9 µM | TK-10 47.1 µM | MDA-N 21.9 µM | HT-29 19.7 µM | SF-268 18.4 µM | NCI-H522 21.2 µM | T47D 55 µM | KM12 27.2 µM | IGROV-1 45 µM

Cc1cccc(Cl)c1NCC(O)CN1CCN(C)CC1 (stereo not given)
inactive: MDA-MB-231 > 100 µM | UACC-62 > 100 µM | SNB-19 > 100 µM | SF-295 > 100 µM | RXF 393 > 100 µM | M14 > 100 µM | UACC-257 > 100 µM | OVCAR-5 > 100 µM | SK-MEL-5 > 100 µM | SNB-75 > 100 µM | CCRF-CEM > 100 µM | TK-10 > 100 µM | MDA-N > 100 µM | HT-29 > 100 µM | SF-268 > 100 µM | NCI-H522 > 100 µM | T47D > 100 µM | KM12 > 100 µM | IGROV-1 > 100 µM

CC(=O)Nc1ccc(C(=O)N[C@@H]2C(=O)N3[C@@H]2SC(C)(C)[C@@H]3C(=O)O)cn1
inactive: MDA-MB-231 > 100 µM | UACC-62 > 100 µM | SNB-19 > 100 µM | SF-295 > 100 µM | RXF 393 > 100 µM | M14 > 100 µM | UACC-257 > 100 µM | OVCAR-5 > 100 µM | SK-MEL-5 > 100 µM | SNB-75 > 100 µM | CCRF-CEM > 100 µM | TK-10 > 100 µM | MDA-N > 100 µM | HT-29 > 100 µM | SF-268 > 100 µM | T47D > 100 µM | KM12 > 100 µM | IGROV-1 > 100 µM

Cc1cn(C2CC(OP(=O)(O)OCC3OC(n4c[n+]([BH2-]C#N)c5c(=O)[nH]c(N)nc54)CC3O)C(CO)O2)c(=O)[nH]c1=O (stereo not given)
inactive: MDA-MB-231 > 100 µM | UACC-62 > 100 µM | SNB-19 > 100 µM | SF-295 > 100 µM | RXF 393 > 100 µM | SF-539 > 100 µM | M14 > 100 µM | UACC-257 > 100 µM | OVCAR-5 > 100 µM | SK-MEL-5 > 100 µM | SNB-75 > 100 µM | CCRF-CEM > 100 µM | MDA-N > 100 µM | HT-29 > 100 µM | SF-268 > 100 µM | NCI-H522 > 100 µM | T47D > 100 µM | KM12 > 100 µM | IGROV-1 > 100 µM

O=S(=O)(Cc1ccccc1)c1nnc(S(=O)(=O)c2ccc(Cl)cc2)s1
inactive: MDA-MB-231 34.8 µM | UACC-62 27 µM | SNB-19 19.6 µM | SF-295 24.1 µM | RXF 393 17.3 µM | SF-539 18.5 µM | M14 17.7 µM | UACC-257 19.9 µM | OVCAR-5 24.8 µM | SK-MEL-5 17.9 µM | SNB-75 16.6 µM | TK-10 12.2 µM | MDA-N 18.1 µM | HT-29 22.5 µM | SF-268 19.5 µM | NCI-H522 14 µM | T47D 31.6 µM | KM12 25.7 µM

CC(=O)/C=C/CCC(=O)/C=C/C(=O)OC(CCC(=O)/C=C/C(=O)O)CC(C)=O (stereo not given)
inactive: MDA-MB-231 > 100 µM | UACC-62 1.19 µM | SNB-19 > 100 µM | SF-295 > 100 µM | RXF 393 > 100 µM | SF-539 > 100 µM | M14 > 100 µM | UACC-257 > 100 µM | OVCAR-5 > 100 µM | SK-MEL-5 > 100 µM | CCRF-CEM 43.8 µM | TK-10 > 100 µM | MDA-N > 100 µM | HT-29 > 100 µM | SF-268 > 100 µM | NCI-H522 96.4 µM | T47D > 100 µM | KM12 > 100 µM | IGROV-1 > 100 µM

Nc1nc(N)c2cc(-c3ccccc3)cnc2n1
inactive: MDA-MB-231 7.89 µM | SNB-19 18.2 µM | SF-295 17 µM | RXF 393 8.65 µM | SF-539 14.7 µM | M14 12.9 µM | UACC-257 14.2 µM | OVCAR-5 14.6 µM | SK-MEL-5 10 µM | SNB-75 3.61 µM | CCRF-CEM 20.1 µM | TK-10 16.3 µM | MDA-N 9.86 µM | HT-29 8.55 µM | SF-268 2.75 µM | NCI-H522 21.6 µM | T47D 36.8 µM | KM12 16.5 µM | IGROV-1 12.9 µM

Reference: ChEMBL document CHEMBL1201862, “PubChem BioAssay data set” (2004)
